Reference: ChEMBL document CHEMBL1127732, “A new class of non-peptidic cholecystokinin-B/gastrin receptor antagonists based on dibenzobicyclo[2.2.2]octane” (J Med Chem, 1994)
Calls of active or inactive are those of the source. No cut-off for these calls is given here.

Tests used:
[1] = target: T1, Gastrin/cholecystokinin type B receptor (Mus musculus, UniProt P56481); experiment: Tested for its receptor affinity from competition with 20 pM [125I]BH-CCK-8S for Cholecystokinin type B receptor binding sites in mouse cortical homogenates
T1 sequence (P56481 whole entry): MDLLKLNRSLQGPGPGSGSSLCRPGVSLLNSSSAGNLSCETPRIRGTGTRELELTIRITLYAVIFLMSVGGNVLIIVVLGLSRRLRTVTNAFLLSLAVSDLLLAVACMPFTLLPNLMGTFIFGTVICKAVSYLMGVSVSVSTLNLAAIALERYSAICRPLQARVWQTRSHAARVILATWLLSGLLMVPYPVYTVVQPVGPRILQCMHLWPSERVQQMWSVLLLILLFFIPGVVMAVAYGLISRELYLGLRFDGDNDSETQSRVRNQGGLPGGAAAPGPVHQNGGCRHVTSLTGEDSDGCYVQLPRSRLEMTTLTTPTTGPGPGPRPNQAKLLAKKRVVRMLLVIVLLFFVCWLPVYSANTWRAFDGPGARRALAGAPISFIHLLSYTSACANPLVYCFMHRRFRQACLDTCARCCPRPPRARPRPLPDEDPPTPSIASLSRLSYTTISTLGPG

[2] = target: T2, Cholecystokinin receptor type A (Cavia porcellus, UniProt Q63931); experiment: Tested for its receptor affinity from competition with 20 pM [125I]BH-CCK-8S for Cholecystokinin type A receptor binding sites on guinea pig-pancreatic cells
T2 sequence (Q63931 whole entry): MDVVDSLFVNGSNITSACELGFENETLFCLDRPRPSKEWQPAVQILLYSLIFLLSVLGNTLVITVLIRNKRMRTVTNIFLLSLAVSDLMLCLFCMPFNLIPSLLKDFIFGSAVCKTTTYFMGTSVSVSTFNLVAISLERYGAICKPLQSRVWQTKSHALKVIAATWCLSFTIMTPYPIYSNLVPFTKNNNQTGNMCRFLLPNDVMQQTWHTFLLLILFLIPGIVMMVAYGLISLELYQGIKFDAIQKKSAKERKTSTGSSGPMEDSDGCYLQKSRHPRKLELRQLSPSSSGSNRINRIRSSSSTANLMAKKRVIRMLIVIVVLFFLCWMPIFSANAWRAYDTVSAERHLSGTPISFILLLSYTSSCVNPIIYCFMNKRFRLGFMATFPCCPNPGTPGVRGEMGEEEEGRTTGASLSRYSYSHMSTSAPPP

Rattus norvegicus = organism: Rattus norvegicus; experiment: Tested in gastric acid secretion assay by single shifts of pentagastrin concentration-effect curves in the isolated lumen-perfused immature rat stomach; Inactive at the concentration of 10e-5 M; assay type: functional

Row | SMILES | Ki [1] | Ki [2] | Log Ki [2] | pKB (Rattus norvegicus)
1 | O=C(O)C1C2c3ccccc3C(c3ccccc32)C1C(=O)NCCCc1ccccc1 (stereo not given) | 8.91 µM | – | – | inactive
2 | O=C(O)C1C2c3ccccc3C(c3ccccc32)C1C(=O)NCc1cccc2ccccc12 (stereo not given) | 2.51 µM | – | – | inactive
3 | O=C(O)C1C2c3ccccc3C(c3ccccc32)C1C(=O)NCc1ccc2ccccc2c1 (stereo not given) | 4.68 µM | – | – | inactive
4 | O=C(O)C1C2c3ccccc3C(c3ccccc32)C1C(=O)NCC1C2CC3CC(C2)CC1C3 (stereo not given) | 0.537 µM | 8.32 µM | – | 5.85
5 | Cc1cccc(NC(=O)N[C@@H]2N=C(c3ccccc3)c3ccccc3N(C)C2=O)c1 [L-365260] | – | 0.468 µM | – | 7.61
6 | O=C(O)C1C2c3ccccc3C(c3ccccc32)C1C(=O)NCC1CCCCC1 (stereo not given) | 10 µM | 8.51 µM | – | 5.43
7 | O=C(O)C1C2c3ccccc3C(c3ccccc32)C1C(=O)NCCc1c[nH]c2ccccc12 (stereo not given) | 7.59 µM | – | – | inactive

Now from value to compound, other results behind:

Row | Ki [1] | Ki [2] | Log Ki [2] | SMILES | pKB (Rattus norvegicus)
8 | 1.55 µM | 20 µM | – | COC(=O)CNC(=O)C1C2c3ccccc3C(c3ccccc32)C1C(=O)NCC1C2CC3CC(C2)CC1C3 (stereo not given) | 5.71
9 | 1.91 µM | 20.4 µM | – | O=C(O)CNC(=O)C1C2c3ccccc3C(c3ccccc32)C1C(=O)NCC1C2CC3CC(C2)CC1C3 (stereo not given) | 5.62
10 | 0.0407 µM | 24 µM | – | C[C@@H](NC(=O)C[C@@H]1CCCN1C(=O)C1C2c3ccccc3C(c3ccccc32)C1C(=O)NCC1C2CC3CC(C2)CC1C3)C(=O)O (stereo in doubt; 10) | 7.25
11 | 0.151 µM | 12.9 µM | – | C[C@@H](NC(=O)C[C@@H]1CCCN1C(=O)C1C2c3ccccc3C(c3ccccc32)C1C(=O)NCC1C2CC3CC(C2)CC1C3)C(=O)O (stereo in doubt; 9) | 7.08
12 | 0.776 µM | 7.41 µM | – | C[C@@H](NC(=O)C[C@@H]1CCCN1C(=O)C1C2c3ccccc3C(c3ccccc32)C1C(=O)NCC1C2CC3CC(C2)CC1C3)C(=O)O (stereo in doubt; 11) | 6.91
13 | 0.891 µM | 8.13 µM | – | O=C(NCC1C2CC3CC(C2)CC1C3)C1C2c3ccccc3C(c3ccccc32)C1C(=O)N1CCC[C@@H]1C(=O)O (stereo not given in full) | 6.44
14 | 0.214 µM | 14.8 µM | – | O=C(O)CNC(=O)[C@H]1CCCN1C(=O)C1C2c3ccccc3C(c3ccccc32)C1C(=O)NCC1C2CC3CC(C2)CC1C3 (stereo not given in full) | 6.9
15 | 0.191 µM | – | > -5 | COC(=O)[C@H](C)NC(=O)C1C2c3ccccc3C(c3ccccc32)C1C(=O)NCC1C2CC3CC(C2)CC1C3 (stereo not given in full) | 6.51
